This test concerns the target kappa opioid receptor (OPRK1) (Homo sapiens (Human), UniProt P41145). The test can be described thus: OPRK1 antagonist assay (b-arrestin-2-TEV / b-lactamase reporter cell line, EC80 U-50488 challenge). The test is classed as cell-based. Particulars: read-out: IC50 nM (% inhib if other than 50%); antagonist mode vs EC80 U-50488; NA = not active at concentrations up to 10 μM.
Chain of kappa opioid receptor (OPRK1) (P41145 whole entry): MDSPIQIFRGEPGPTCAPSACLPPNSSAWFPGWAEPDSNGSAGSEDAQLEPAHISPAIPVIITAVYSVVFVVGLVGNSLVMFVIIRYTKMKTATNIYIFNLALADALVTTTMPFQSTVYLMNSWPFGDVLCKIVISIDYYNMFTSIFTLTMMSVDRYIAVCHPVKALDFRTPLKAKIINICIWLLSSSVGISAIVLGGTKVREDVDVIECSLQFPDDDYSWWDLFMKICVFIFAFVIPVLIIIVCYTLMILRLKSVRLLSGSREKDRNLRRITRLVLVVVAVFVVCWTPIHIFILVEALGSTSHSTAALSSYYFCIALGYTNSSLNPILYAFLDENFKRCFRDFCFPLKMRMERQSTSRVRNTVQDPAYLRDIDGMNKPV
The IC50 is the concentration that gives 50% inhibition. With `COC(=O)c1cc(F)cnc1N1CCC(NC2CCCCC2)CC1` [compound 72], the IC50 worked out at 6600 nM.

Regarding `COC(=O)c1cc(Br)cnc1N1CCC(NC2CCCCC2)C(C)C1` (stereo not shown) [compound 45], the 50% inhibitory concentration (IC50) stood at 164 nM.

In the case of `Cc1ccc2nc(N3CCC(NC4CCCCC4)CC3)c(-c3nc(C)no3)cc2c1` [compound 219], the 50% inhibitory concentration (IC50) is 3.5 nM.

As for `COC1CN(c2ncc(C)cc2-c2nc(C)no2)CCC1NC1CCCCC1` (stereo not shown) [compound 179], the IC50 is 253 nM.

For the compound `CO[C@@H]1CN(c2nc3ccc(F)cc3cc2-c2nc(C)no2)CC[C@@H]1NC1CCCCC1` [compound 331], the IC50 turned out to be 27 nM.

For `Cc1nc(-c2cc3cc(F)ccc3nc2N2CCC(NC3CCOCC3)CC2)no1` [compound 469], the IC50 amounted to 440 nM.

Consider `CCO/N=C/c1cc(Br)cnc1N1CCC(NC2CCCCC2)CC1` [compound 101], for which the IC50 was 4000 nM.

Regarding `COC1CN(c2nc3ccccc3cc2C2=NCC(C)O2)CCC1NC1CCCCC1` (stereo not shown) [compound 258], the IC50 came to 7160 nM.

As to `Cc1ccc2cc(-c3nc(C)no3)c(N3CCC(NC4CCCCC4O)CC3)nc2c1` (stereo not shown) [compound 256], the IC50 was determined as 631 nM.

As for `CO[C@H]1CN(c2nc3cc(F)c(C)cc3cc2-c2nc(C)no2)CC[C@H]1NC1CCCCC1` [compound 496], the IC50 came to 54 nM.

As to `Cc1noc(-c2cc3ccccc3nc2N2CCC(NC3CCCCC3)CC2)n1` [compound 209], the IC50 was 18 nM.

With `COC(=O)c1cc(Br)cnc1N1CC2C(C1)C2NC1CCCCC1` (stereo not shown) [C27], the concentration for half-maximal inhibition (IC50) worked out at 21000 nM.

In the case of `Cc1ccc2nc(N3CCC(NC4CCCCC4)CC3)c(-c3ccncn3)cc2c1` [compound 532], the IC50 is 334 nM.

As for `COC(=O)c1cc(Br)cnc1N1CCC(NC2CCCC2)C(O)C1` (stereo not shown) [compound 44], the IC50 was 79 nM.

Take `CC(C)OC(=O)c1cc(Br)cnc1N1CCC(NC2CCCCC2)CC1` [compound 39]: the IC50 came to 398 nM.

Turning to `COC(=O)c1cc(C)ccc1N1CCC(NC2CCCCC2)C(OC)C1` (stereo not shown) [compound 539], the IC50 is 3700 nM.

With `COC1CN(c2nc3cc(C)c(C)cc3cc2-c2nc(C)no2)CCC1NC1CCCCC1` (stereo not shown) [compound 306], the half-inhibitory concentration (IC50) was determined as 107 nM.

As to `Cc1noc(-c2cc3cccc(C)c3nc2N2CCC(NC3CCCCC3)C(CO)C2)n1` (stereo not shown) [compound 277], the 50% inhibitory concentration (IC50) is 9 nM.

With `COC1CN(c2nc3c(cc2-c2nc(C)no2)CCC3)CCC1NC1CCCCC1` (stereo not shown) [compound 210], the IC50 amounted to 72 nM.

As to `CCc1noc(-c2cc3cc(C)ccc3nc2N2CCC(NC3CCCCC3)C(CO)C2)n1` (stereo not shown) [compound 284], the IC50 came out at 20 nM.

Take `CCC1(CO)CN(c2ncc(C)cc2-c2nc(C)no2)CCC1NC1CCCCC1` (stereo not shown) [compound 182]: the IC50 was 76 nM.

As to `CCCC(=O)Nc1cnc(N2CCC(NC3CCCCC3)CC2)c(C(=O)OC)c1` [compound 95], the IC50 turned out to be 1.4 nM.

`CCOC(=O)c1cc(C#N)c(C)nc1N1CCC(NC2CCCCC2)C(O)C1` (stereo not shown) [C53]: the IC50 stood at 13000 nM.

As for `COC(=O)c1cc(Br)cnc1N1CCC(NC2CCCC2O)CC1` (stereo not shown) [compound 3], the IC50 is 287 nM.

For the compound `CO[C@@H]1CN(c2nc3c(C)c(F)ccc3cc2-c2nc(C)no2)CC[C@@H]1NC1CCCCC1` [compound 492], the IC50 came to 74 nM.

Consider `COC(=O)c1cc(Cl)cnc1N1CCC(NC2CCCCC2)C(CO)C1` (stereo not shown) [compound 70], for which the IC50 came to 110 nM.

For `Cc1noc(-c2cc3ccccc3nc2N2CC(NC3CCCCC3)C2)n1` [compound 234], the half-maximal inhibitory concentration (IC50) came out at 596 nM.

`CO[C@@H]1CN(c2nc3ccc(C)cc3cc2-c2nc(C)no2)CC[C@@H]1NC1CCOCC1` [compound 522]: the IC50 was found to be 67 nM.

For `COC(=O)c1cc(Br)cnc1N1CCC(NC2CCCC2)C(CO)C1` (stereo not shown) [compound 79], the IC50 was 25 nM.

Consider `COC(=O)c1cccnc1N1CCC(NC2CCOCC2)C(O)C1` (stereo not shown) [compound 56], for which the IC50 turned out to be 7000 nM.

Regarding `Cc1noc(-c2cc3c(F)cccc3nc2N2CC[C@@H](NC3CCCCC3)[C@H](O)C2)n1` [compound 251], the IC50 was 11 nM.

These data come from patent US20250346584A1, “NOVEL KAPPA OPIOID LIGANDS” (The Scripps Research Institute, priority 2012, published 2025).
